From patent US11419918B2, “Treatment of biliary cirrhosis based on oxyntomodulin analogue GLP-1R/GCGR dual-target agonist peptide” (Shenzhen Turier Biotech Co., Ltd., priority 2017, dated 2022) come the findings set out here.

Numbered stars: 1 amine (or outer) side, 2 acyl side, 3 side chain; on linkers, the order of the positions; unused ones are H or OH. Square brackets hold non-standard residues; d marks the D form. Primed or numbered codes have the meaning given here. Side chains are listed from the residue outwards. Ends that are not written are not given here. * marks the point of attachment. C18 diacid = O=C(O)CCCCCCCCCCCCCCCCC(=O)*; γGlu = O=C(O)[C@H](CCC(=O)[*:2])N[*:1]; Stearoyl = CCCCCCCCCCCCCCCCCC(=O)*; Palmitoyl = CCCCCCCCCCCCCCCC(=O)*; Nle = CCCC[C@H](N)C(=O)O; PEG2′ = not defined here; Aib = CC(C)(N)C(=O)O

The assay deals with human hepatic stellate cells (LX-2). The assay is described as follows: In vitro inhibition of hepatic fibrosis: expression of activation marker α-SMA in LX-2 cells (Western Blot, β-actin internal reference). It is filed as cell-based. Conditions: 10.0 μM, 48 hours, negative control (PBS) = 100%. How it is done:
Hepatic stellate cell strain LX-2 was selected to study and observe the effect of different doses of test substances on the expression of LX-2 cell activation marker α-SMA. Hepatic stellate cell LX-2 was laid on 35 mm cell culture plate, cultured with DMEM (high glucose)+10% FBS+1% double-antibody culture medium (Thermo Fisher), placed overnight when the cells grew to 70% convergence at 37° C. and under the condition of 5% CO2, and treated with the above GLP-1R/GCGR dual target agonist polypeptides 1-48 (dissolved in PBS) for 48 hours the next day morning to extract cell protein, carry out Western Blot, and take β-actin as internal reference and analyze the expression quantities of α-SMA and β-actin by a gray level of Image J 1.50i. PBS with the same volume as that in experimental group was added in negative control. […] The integrating gray level of α-SMA/β-actin in the negative control group was 100% to analyze the in vitro inhibition activity of hepatic fibrosis of tested polypeptide.
In general terms: Immunoblotting shows a protein as a band on a membrane.

As to “His-(D-Ser)-Gln-Gly-Thr-Phe-Thr-Ser-Asp-Lys(PEG2-PEG2-γGlu-CO(CH2)16CO2H)-Ser-Lys-Tyr-Leu-Asp-Aib-Arg-Arg-Ala-Gln-Asp-Phe-Val-Gln-Trp-Leu-Nle-Asn-Thr-Gly-Gly-Pro-Ser-Ser-Gly-Ala-Pro-Pro-Pro-Ser-NH2 (H[dS]QGTFTSDK([PEG2′-PEG2′-γGlu-C18 diacid])SKYLD[Aib]RRAQDFVQWL[Nle]NTGGPSSGAPPPS-NH2) [Compound 48]”, the “Relative expression of α-SMA (α-SMA/β-actin, %)” value was found to be 43.25%.

As to “His-(D-Ser)-Gln-Gly-Thr-Phe-Thr-Ser-Asp-Tyr-Ser-Lys-Tyr-Leu-Asp-Lys(PEG2-PEG2-CO(CH2)14CH3)-Arg-Arg-Ala-Gln-Asp-Phe-Val-Gln-Trp-Leu-Leu-Asn-Thr-Gly-Gly-Pro-Ser-Ser-Gly-Ala-Pro-Pro-Pro-Ser-NH2 (H[dS]QGTFTSDYSKYLDK([PEG2′-PEG2′-Palmitoyl])RRAQDFVQWLLNTGGPSSGAPPPS-NH2) [Compound 42]”, the “Relative expression of α-SMA (α-SMA/β-actin, %)” value was 38.11%.

Take “His-(D-Ser)-Gln-Gly-Thr-Phe-Thr-Ser-Asp-Tyr-Ser-Lys-Tyr-Leu-Asp-Ser-Lys(PEG2-PEG2-γGlu-CO(CH2)16CH3)-Ala-Ala-His-Asp-Phe-Val-Glu-Trp-Leu-Leu-Arg-Ala-NH2 (H[dS]QGTFTSDYSKYLDSK([PEG2′-PEG2′-γGlu-Stearoyl])AAHDFVEWLLRA-NH2) [Compound 25]”: the “Relative expression of α-SMA (α-SMA/β-actin, %)” value is reported as 53.34%.

For “His-(D-Ser)-Gln-Gly-Thr-Phe-Thr-Ser-Asp-Tyr-Ser-Lys-Tyr-Leu-Asp-Glu-Lys-Ala-Ala-Lys(PEG2-PEG2-γGlu-CO(CH2)14CH3)-Glu-Phe-Ile-Glu-Trp-Leu-Leu-Asn-Gly-Gly-Pro-Ser-Ser-Gly-Ala-Pro-Pro-Pro-Ser-NH2 (H[dS]QGTFTSDYSKYLDEKAAK([PEG2′-PEG2′-γGlu-Palmitoyl])EFIEWLLNGGPSSGAPPPS-NH2) [Compound 29]”, the “Relative expression of α-SMA (α-SMA/β-actin, %)” value turned out to be 49.36%.

On to “His-(D-Ser)-Gln-Gly-Thr-Phe-Thr-Ser-Asp-Tyr-Ser-Lys-Tyr-Leu-Asp-Glu-Lys-Ala-Ala-Lys(PEG2-PEG2-γGlu-CO(CH2)16CO2H)-Glu-Phe-Ile-Glu-Trp-Leu-Leu-Arg-Ala-NH2 (H[dS]QGTFTSDYSKYLDEKAAK([PEG2′-PEG2′-γGlu-C18 diacid])EFIEWLLRA-NH2) [Compound 18]”, for which the “Relative expression of α-SMA (α-SMA/β-actin, %)” value turned out to be 45.60%.

For the substance “His-Aib-Gln-Gly-Thr-Phe-Thr-Ser-Asp-Lys(PEG2-PEG2-γGlu-CO(CH2)16CO2H)-Ser-Lys-Tyr-Leu-Asp-Aib-Arg-Arg-Ala-Gln-Asp-Phe-Val-Gln-Trp-Leu-Leu-Asp-Gly-Gly-Pro-Ser-Ser-Gly-Ala-Pro-Pro-Pro-Ser-NH2 (H[Aib]QGTFTSDK([PEG2′-PEG2′-γGlu-C18 diacid])SKYLD[Aib]RRAQDFVQWLLDGGPSSGAPPPS-NH2) [Compound 19]”, the “Relative expression of α-SMA (α-SMA/β-actin, %)” value was determined as 39.75%.

With “His-Aib-Gln-Gly-Thr-Phe-Thr-Ser-Asp-Lys(PEG2-PEG2-γGlu-CO(CH2)14CH3)-Ser-Lys-Tyr-Leu-Asp-Aib-Arg-Arg-Ala-Gln-Asp-Phe-Val-Gln-Trp-Leu-Leu-Asp-Gly-Gly-Pro-Ser-Ser-Gly-Ala-Pro-Pro-Pro-Ser-NH2 (H[Aib]QGTFTSDK([PEG2′-PEG2′-γGlu-Palmitoyl])SKYLD[Aib]RRAQDFVQWLLDGGPSSGAPPPS-NH2) [Compound 8]”, the “Relative expression of α-SMA (α-SMA/β-actin, %)” value worked out at 38.25%.

Take “His-(D-Ser)-Gln-Gly-Thr-Phe-Thr-Ser-Asp-Tyr-Ser-Lys-Tyr-Leu-Asp-Aib-Lys(PEG2-PEG2-γGlu-CO(CH2)14CH3)-Arg-Ala-Gln-Asp-Phe-Val-Gln-Trp-Leu-Met-Asn-Thr-Gly-Gly-Pro-Ser-Ser-Gly-Ala-Pro-Pro-Pro-Ser-NH2 (H[dS]QGTFTSDYSKYLD[Aib]K([PEG2′-PEG2′-γGlu-Palmitoyl])RAQDFVQWLMNTGGPSSGAPPPS-NH2) [Compound 33]”: the “Relative expression of α-SMA (α-SMA/β-actin, %)” value stood at 35.45%.
